# According to patent US20110218188A1, “SUBSTITUTED (PYRIDYL)-AZINYLAMINE DERIVATIVES AS FUNGICIDES” (priority 2008, published 2011):
# Marks after values point to notes of the source that are not given here.
# Experiment: Measurement of logP values by HPLC on reversed phase columns (EEC directive 79/831 Annex V.A8)
# Format: physicochemical
SMILES,logP (pH 2.7),other results
"NC(=NO)c1cc(-c2ncnc(Nc3cccc(Cl)c3)n2)ccn1 [Example B78, 4-{4-[(3-chlorophenyl)amino]-1,3,5-triazin-2-yl}-N′-hydroxypyridine-2-carboximidamide]",–,chromatographic logP (pH 2.7): 2.28
C#CC(C)ON=C(C)c1cc(-c2ncnc(Nc3cccc(Cl)c3)n2)ccn1 (mixture of isomers) [B30],4.47,–
CC(C)N(CCO)C(=O)c1cc(-c2ncnc(Nc3cccc(Cl)c3)n2)ccn1 [Example B180],2.45,–
CSc1cccc(Nc2ncnc(-c3ccnc(C(=O)N4CCCC4)c3)n2)c1 [B211],2.82,–
CN(CC1CCCO1)C(=O)c1cc(Nc2nccc(-c3ccnc(C(=O)N(C)CC4CCCO4)c3)n2)ccn1 (stereo not drawn) [Example A16],1.35,–
COCCNC(=O)c1cc(-c2ncnc(Nc3cccc(Cl)c3)n2)ccn1 [B59],2.84,–
CC(C)N(C)C(=S)c1cc(-c2ncnc(Nc3ccc(F)c(C(F)F)c3)n2)ccn1 [Example B329],3.29,–
CN(CC(F)F)C(=O)c1cc(-c2ncnc(Nc3ccsc3)n2)ccn1 [Example C21],2.46,–
CC(=NOCC1CC1)c1cc(-c2ncnc(Nc3cccc(Cl)c3)n2)ccn1 (mixture of isomers) [Example B34],4.94,–
CCC(=NOC)c1cc(-c2ncnc(Nc3cccc(Cl)c3)n2)ccn1 (mixture of isomers) [Example B85],4.81,–
CCN(CC)C(=O)c1cc(-c2ncnc(Nc3ccc(Cl)c(C(F)F)c3)n2)ccn1 [Example B352],3.23,–
CCN(C)C(=S)c1cc(-c2ncnc(Nc3ccc(F)c(C(F)F)c3)n2)ccn1 [Example B333],3.04,–
CCN(CC)C(=O)c1cc(-c2ncnc(Nc3cccc(OC(F)F)c3)n2)ccn1 [Example B298],2.88,–
CCCN(CCO)C(=O)c1cc(-c2ccnc(Nc3ccnc(Cl)c3)n2)ccn1 [Example A10],1.84,–
Cc1ccc(Nc2ncnc(-c3ccnc(C(=O)NC(C)C)c3)n2)cc1Cl [B230],4.04,–
O=C(NCC(F)(F)F)c1cc(-c2ncnc(Nc3cccc(Cl)c3)n2)ccn1 [B117],3.67,–
CN(CC1CC1)C(=O)c1cc(-c2ncnc(Nc3cccc(OC(F)(F)F)c3)n2)ccn1 [Example B265],3.48,–
C#CCON=C(C)c1cc(-c2ncnc(Nc3cccc(Cl)c3)n2)ccn1 (mixture of isomers) [Example B37],3.98,–
CCC(=NOC1CCCC1)c1cc(-c2ncnc(Nc3cccc(Cl)c3)n2)ccn1 (mixture of isomers) [B47],6.39,–
CC(C)CCN(C)C(=O)c1cc(-c2ncnc(Nc3cccc(Cl)c3)n2)ccn1 [Example B146],3.87,–
CC(=O)O/N=C(/N)c1cc(-c2ncnc(Nc3cccc(Cl)c3)n2)ccn1 [B109],2.95,–
COCc1cccc(Nc2ncnc(-c3ccnc(C(=O)N(C)C(COC)C4CC4)c3)n2)c1 (stereo not drawn) [B251],2.69,–
CCC(COC)NC(=O)c1cc(-c2ncnc(Nc3ccc(F)c(Cl)c3)n2)ccn1 (stereo not drawn) [Example B195],3.89,–
"CCOC(=O)c1cc(-c2ccnc(Nc3ccc(OC)nc3)n2)ccn1 [Example A1, ethyl 4-{2-[(6-methoxypyridin-3-yl)amino]-pyrimidin-4-yl}pyridine-2-carboxylate]",–,chromatographic logP (pH 2.7): 1.1
CCCN(C)C(=O)c1cc(-c2ncnc(Nc3cccc(F)c3)n2)ccn1 [Example B3],2.72,–
CCOC1CCC(NC(=O)c2cc(-c3ncnc(Nc4cccc(Cl)c4)n3)ccn2)CC1 (stereo not drawn) [Example B97],4.39,–

SMILES,logP (pH 2.7),other results
CC1CCCN(C(=O)c2cc(-c3ncnc(Nc4cccc(Cl)c4)n3)ccn2)C1C (stereo not drawn) [Example B137],3.78,–
CCC(=NOCc1c(Cl)cccc1Cl)c1cc(-c2ncnc(Nc3cccc(Cl)c3)n2)ccn1 (mixture of isomers) [B69],6.53,–
COCCN(C)C(=O)c1cc(Nc2nccc(-c3ccnc(C(=O)N(C)CCOC)c3)n2)ccn1 [Example A4],1.1,–
O=C(c1cc(-c2ncnc(Nc3cccc(Cl)c3)n2)ccn1)N1CCCCC1 [Example B115],3.1,–
CN(C)C(=O)c1cc(-c2ncnc(Nc3ccc(F)c(F)c3)n2)ccn1 [Example B377],2.25,–
CC1CCN(C(=O)c2cc(-c3ncnc(Nc4cccc(Cl)c4)n3)ccn2)CC1 [Example B131],3.51,–
"CCOC(=N)c1cc(-c2ncnc(Nc3cccc(Cl)c3)n2)ccn1 [Example B102, ethyl 4-{4-[(3-chlorophenyl)amino]-1,3,5-triazin-2-yl}pyridine-2-carboximidoate]",–,chromatographic logP (pH 2.7): 2.08
COCC(C1CC1)N(C)C(=O)c1cc(-c2ncnc(Nc3cccc(OC(F)F)c3)n2)ccn1 (stereo not drawn) [Example B303],2.94,–
CCC(COC)NC(=O)c1cc(-c2ncnc(Nc3cccc(SC)c3)n2)ccn1 (stereo not drawn) [B216],3.69,–
CCN(C)C(=O)c1cc(-c2ncnc(Nc3cccc(OC)c3)n2)ccn1 [Example B278],2.26,–
O=C(O)c1cc(-c2ncnc(Nc3cccc(Cl)c3)n2)ccn1 [B404],2.11,–
CC(C)CN(C)C(=O)c1cc(-c2ncnc(Nc3cc(F)ccc3F)n2)ccn1 [Example B238],2.9,–
CCN(C)C(=O)c1cc(-c2ncnc(Nc3cccc(S(F)(F)(F)(F)F)c3)n2)ccn1 [Example B252],3.06,–
CN(C)C(=O)c1cc(-c2ncnc(Nc3ccccc3)n2)ccn1 [Example B314],1.95,–
CC#CCON=C(CC)c1cc(-c2ncnc(Nc3cccc(Cl)c3)n2)ccn1 (mixture of isomers) [B53],4.91,–
CC(CN(C)C)NC(=O)c1cc(-c2ncnc(Nc3cccc(Cl)c3)n2)ccn1 (stereo not drawn) [B66],1.72,–
CC(C)C(C)NC(=O)c1cc(-c2ncnc(Nc3cccc(Cl)c3)n2)ccn1 (stereo not drawn) [B62],4.3,–
CC(C)N(C)C(=O)c1cc(-c2ncnc(Nc3cccc(Cl)c3)n2)ccn1 [Example B158],2.96,–
O=C(NCCCCN1CCCC1=O)c1cc(-c2ncnc(Nc3cccc(Cl)c3)n2)ccn1 [B96],2.73,–
CC(=NOCCN(C)C)c1cc(-c2ncnc(Nc3cccc(Cl)c3)n2)ccn1 (mixture of isomers) [B32],1.99,–
CC(C)NC(=O)c1cc(-c2ncnc(Nc3ccc(F)c(Cl)c3)n2)ccn1 [B196],3.73,–
CCCN(C)C(=O)c1cc(-c2ncnc(Nc3ccc(OC)nc3)n2)ccn1 [Example C5],–,logP (pH 7.8): 2.11^[c]
CCN(C)C(=O)c1cc(-c2ncnc(Nc3ccc(Cl)c(C(F)F)c3)n2)ccn1 [Example B386],2.88,–
O=C(c1cc(-c2ccnc(Nc3ccnc(Cl)c3)n2)ccn1)N1CC=CCC1 [Example A2],2.2,–
CC(C)NC(=O)c1cc(-c2ncnc(Nc3cccc(Cl)c3)n2)ccn1 [Example B91],3.62,–
CC(C)=CC(=O)O/N=C(/N)c1cc(-c2ncnc(Nc3cccc(Cl)c3)n2)ccn1 [Example B111],3.92,–

SMILES,logP (pH 2.7),other results
COCc1cccc(Nc2ncnc(-c3ccnc(C(=O)N(C)CC4CC4)c3)n2)c1 [Example B242],2.58,–
CC(C)N(C)C(=O)c1cc(-c2ncnc(Nc3cccc(OC(F)(F)F)c3)n2)ccn1 [B269],3.29,–
CC(C)CN(C)C(=O)c1cc(-c2ncnc(Nc3cccc(OC(F)(F)F)c3)n2)ccn1 [Example B267],3.73,–
CCN(C)C(=O)c1cc(-c2ncnc(Nc3cccc(C(F)F)c3)n2)ccn1 [Example B400],2.44,–
CN(C)C(=O)c1cc(-c2ncnc(Nc3cccc(C(F)(F)F)c3)n2)ccn1 [Example B355],2.58,–
CN(CCC#N)C(=S)c1cc(-c2ncnc(Nc3cccc(Cl)c3)n2)ccn1 [Example B343],3.02,–
CC(C)N(C)C(=O)c1cc(-c2ncnc(Nc3ccccc3)n2)ccn1 [Example B317],2.45,–
"CON(C)C(=O)c1cc(-c2ncnc(Nc3ccsc3)n2)ccn1 [Example C30, N-methoxy-N-methyl-4-[4-(3-thienylamino)-1,3,5-triazin-2-yl]pyridine-2-carboxamide]",–,chromatographic logP (pH 2.7): 2.05
COCC(C)NC(=O)c1cc(-c2ncnc(Nc3cccc(Cl)c3)n2)ccn1 (stereo not drawn) [B51],3.21,–
CCN(CC)C(=O)c1cc(-c2ccnc(Nc3ccnc(Cl)c3)n2)ccn1 [Example A27],2.17,–
CCC(C)NC(=O)c1cc(-c2ncnc(Nc3cccc(SC)c3)n2)ccn1 (stereo not drawn) [B218],3.94,–
CCN(CC)C(=O)c1cc(-c2ncnc(Nc3cccc(Cl)c3)n2)ccn1 [Example B130],3.06,–
CSc1cccc(Nc2ncnc(-c3ccnc(C(=O)NCCCN4CCCCCC4=O)c3)n2)c1 [B215],3.02,–
"CC(=O)N(c1ccccc1)c1ncnc(-c2ccnc(C(=S)N(C)CC3CC3)c2)n1 [Example B344, N-(4-{2-[(cyclopropylmethyl)(methyl)carbamothioyl]pyridin-4-yl}-1,3,5-triazin-2-yl)-N-phenylacetamide]",–,chromatographic logP (pH 2.7): 3.02
Cc1ccc(Nc2ncnc(-c3ccnc(C(=O)NC4CCC4)c3)n2)cc1Cl [B234],4.29,–
CCCN(CCC#N)C(=O)c1cc(-c2ncnc(Nc3cccc(Cl)c3)n2)ccn1 [B182],–,logP [b] (pH 2.3): 3.13[b]
CC(=NNc1ccc(Cl)cc1)c1cc(-c2ncnc(Nc3cccc(Cl)c3)n2)ccn1 [Example B82],4.97,–
CN(C)C(=O)c1cc(-c2ncnc(Nc3ccc(F)c(C(F)F)c3)n2)ccn1 [Example B393],2.25,–
CCCNC(=O)c1cc(-c2ncnc(Nc3cccc(Cl)c3)n2)ccn1 [B103],3.62,–
CCN(CC)C(=O)c1cc(-c2ncnc(Nc3ccc(F)c(F)c3)n2)ccn1 [B351],2.88,–
CCN(CC)C(=O)c1cc(-c2ncnc(Nc3cccc(C(F)F)c3)n2)ccn1 [Example B285],2.73,–
CN(C)C(=O)c1cc(-c2ncnc(Nc3ccc(F)c(Cl)c3)n2)ccn1 [Example B205],2.47,–
COCc1cccc(Nc2ncnc(-c3ccnc(C(=O)N(C)CC(C)C)c3)n2)c1 [Example B244],2.66,–
CCC(C)NC(=O)c1cc(-c2ncnc(Nc3ccc(C)c(Cl)c3)n2)ccn1 (stereo not drawn) [B232],4.49,–
C#CC(C)ON=C(CC)c1cc(-c2ncnc(Nc3cccc(Cl)c3)n2)ccn1 (mixture of isomers) [B42],4.87,–
CCN(C)C(=S)c1cc(-c2ncnc(Nc3ccc(F)c(Cl)c3)n2)ccn1 [Example B209],3.33,–
